Key:
[1] = biological target: Serine/threonine-protein kinase ULK1 (Homo sapiens) (UniProt O75385); test: Inhibition of human ULK1 (M1 to T309 residues) expressed in mammalian expression system assessed as residual activity at 50 nM by KINOMEscan assay relative to control
[2] = biological target: 5'-AMP-activated protein kinase catalytic subunit alpha-2 (Homo sapiens) (UniProt P54646); test: Inhibition of wild-type human partial length AMPK alpha2 (M1 to E306 residues) expressed in bacterial expression system assessed as residual activity at 50 nM by Kinomescan method relative to control
[3] = biological target: Platelet-derived growth factor receptor alpha (Homo sapiens) (UniProt P16234); test: Inhibition of wild-type human partial length PDGFRA (V575 to D1002 residues) expressed in mammalian expression system assessed as residual activity at 50 nM by Kinomescan method relative to control
[4] = system: Plasmodium falciparum; test: Inhibition of wild-type Plasmodium falciparum full length PFB0815W (M1 to S524 residues) expressed in mammalian expression system assessed as residual activity at 50 nM by Kinomescan method relative to control
[5] = biological target: Receptor-type tyrosine-protein kinase FLT3 (Homo sapiens) (UniProt P36888); test: Inhibition of wild-type human partial length FLT3 (V592 to Y969 residues) expressed in bacterial expression system assessed as residual activity at 50 nM by Kinomescan method relative to control
[6] = biological target: MAP/microtubule affinity-regulating kinase 4 (Homo sapiens) (UniProt Q96L34); test: Inhibition of wild-type human partial length MARK4 (K29 to G340 residues) expressed in bacterial expression system assessed as residual activity at 50 nM by Kinomescan method relative to control
[7] = biological target: Mitogen-activated protein kinase 6 (Homo sapiens) (UniProt Q16659); test: Inhibition of wild-type human partial length ERK3 (M1 to P413 residues) expressed in bacterial expression system assessed as residual activity at 50 nM by Kinomescan method relative to control
[8] = biological target: Calcium/calmodulin-dependent protein kinase kinase 2 (Homo sapiens) (UniProt Q96RR4); test: Inhibition of wild-type human partial length CAMKK2 (D65 to V471 residues) expressed in bacterial expression system assessed as residual activity at 50 nM by Kinomescan method relative to control
[9] = biological target: Tyrosine-protein kinase Lck (Homo sapiens) (UniProt P06239); test: Inhibition of wild-type human partial length LCK (R207 to P509 residues) expressed in bacterial expression system assessed as residual activity at 50 nM by Kinomescan method relative to control
[10] = biological target: Tyrosine-protein kinase ITK/TSK (Homo sapiens) (UniProt Q08881); test: Inhibition of wild-type human partial length ITK (R335 to L620 residues) expressed in bacterial expression system assessed as residual activity at 50 nM by Kinomescan method relative to control
[11] = biological target: Myosin light chain kinase 2, skeletal/cardiac muscle (Homo sapiens) (UniProt Q9H1R3); test: Inhibition of wild-type human partial length SKMLCK (D258 to K570 residues) expressed in bacterial expression system assessed as residual activity at 50 nM by Kinomescan method relative to control
[12] = biological target: Serine/threonine-protein kinase mTOR (Homo sapiens) (UniProt P42345); test: Inhibition of wild-type human partial length MTOR (L1382 to W2549 residues) expressed in mammalian expression system assessed as residual activity at 50 nM by Kinomescan method relative to control
[13] = biological target: Mitogen-activated protein kinase 7 (Homo sapiens) (UniProt Q13164); test: Inhibition of wild-type human partial length ERK5 (M1 to A409 residues) expressed in bacterial expression system assessed as residual activity at 50 nM by Kinomescan method relative to control
[14] = biological target: Ribosomal protein S6 kinase beta-1 (Homo sapiens) (UniProt P23443); test: Inhibition of wild-type human partial length P70S6K (M1 to S421 residues) expressed in mammalian expression system assessed as residual activity at 50 nM by Kinomescan method relative to control
[15] = biological target: Serine/threonine-protein kinase D3 (Homo sapiens) (UniProt O94806); test: Inhibition of wild-type human partial length PKD3 (S543 to E863 residues) expressed in bacterial expression system assessed as residual activity at 50 nM by Kinomescan method relative to control
[16] = biological target: Cyclin-dependent kinase 3 (Homo sapiens) (UniProt Q00526); test: Inhibition of wild-type human full length CDK3 (M1 to H305 residues) expressed in bacterial expression system assessed as residual activity at 50 nM by Kinomescan method relative to control
[17] = biological target: Cyclin-dependent kinase 11B (Homo sapiens) (UniProt P21127); test: Inhibition of wild-type human partial length CDK11 (M1 to N360 residues) expressed in bacterial expression system assessed as residual activity at 50 nM by Kinomescan method relative to control
[18] = biological target: RAC-gamma serine/threonine-protein kinase (Homo sapiens) (UniProt Q9Y243); test: Inhibition of wild-type human partial length AKT3 expressed in bacterial expression system assessed as residual activity at 50 nM by Kinomescan method relative to control
[19] = biological target: Bone morphogenetic protein receptor type-1B (Homo sapiens) (UniProt O00238); test: Inhibition of wild-type human partial length BMPR1B (D178 to L502 residues) expressed in mammalian expression system assessed as residual activity at 50 nM by Kinomescan method relative to control
[20] = biological target: Citron Rho-interacting kinase (Homo sapiens) (UniProt O14578); test: Inhibition of wild-type human partial length CRIK (M68 to E432 residues) expressed in bacterial expression system assessed as residual activity at 50 nM by Kinomescan method relative to control
[21] = biological target: Mitogen-activated protein kinase 15 (Homo sapiens) (UniProt Q8TD08); test: Inhibition of wild-type human partial length ERK7 (M1 to P437 residues) expressed in bacterial expression system assessed as residual activity at 50 nM by Kinomescan method relative to control
[22] = biological target: Serine/threonine-protein kinase LATS2 (Homo sapiens) (UniProt Q9NRM7); test: Inhibition of wild-type human partial length LATS2 (Q641 to V1088 residues) expressed in mammalian expression system assessed as residual activity at 50 nM by Kinomescan method relative to control
[23] = biological target: Proto-oncogene tyrosine-protein kinase ROS (Homo sapiens) (UniProt P08922); test: Inhibition of wild-type human partial length ROS (A1921 to N2240 residues) expressed in bacterial expression system assessed as residual activity at 50 nM by Kinomescan method relative to control
[24] = biological target: Myosin light chain kinase, smooth muscle (Homo sapiens) (UniProt Q15746); test: Inhibition of wild-type human full length SMMLCK (M854 to E1845 residues) expressed in mammalian expression system assessed as residual activity at 50 nM by Kinomescan method relative to control
[25] = biological target: Mitogen-activated protein kinase kinase kinase 19 (Homo sapiens) (UniProt Q56UN5); test: Inhibition of wild-type human partial length YSK4 (T1019 to H1328 residues) expressed in mammalian expression system assessed as residual activity at 50 nM by Kinomescan method relative to control
Chain of Mitogen-activated protein kinase kinase kinase 19 (Homo sapiens) (Q56UN5 whole entry, the tested form may be a part): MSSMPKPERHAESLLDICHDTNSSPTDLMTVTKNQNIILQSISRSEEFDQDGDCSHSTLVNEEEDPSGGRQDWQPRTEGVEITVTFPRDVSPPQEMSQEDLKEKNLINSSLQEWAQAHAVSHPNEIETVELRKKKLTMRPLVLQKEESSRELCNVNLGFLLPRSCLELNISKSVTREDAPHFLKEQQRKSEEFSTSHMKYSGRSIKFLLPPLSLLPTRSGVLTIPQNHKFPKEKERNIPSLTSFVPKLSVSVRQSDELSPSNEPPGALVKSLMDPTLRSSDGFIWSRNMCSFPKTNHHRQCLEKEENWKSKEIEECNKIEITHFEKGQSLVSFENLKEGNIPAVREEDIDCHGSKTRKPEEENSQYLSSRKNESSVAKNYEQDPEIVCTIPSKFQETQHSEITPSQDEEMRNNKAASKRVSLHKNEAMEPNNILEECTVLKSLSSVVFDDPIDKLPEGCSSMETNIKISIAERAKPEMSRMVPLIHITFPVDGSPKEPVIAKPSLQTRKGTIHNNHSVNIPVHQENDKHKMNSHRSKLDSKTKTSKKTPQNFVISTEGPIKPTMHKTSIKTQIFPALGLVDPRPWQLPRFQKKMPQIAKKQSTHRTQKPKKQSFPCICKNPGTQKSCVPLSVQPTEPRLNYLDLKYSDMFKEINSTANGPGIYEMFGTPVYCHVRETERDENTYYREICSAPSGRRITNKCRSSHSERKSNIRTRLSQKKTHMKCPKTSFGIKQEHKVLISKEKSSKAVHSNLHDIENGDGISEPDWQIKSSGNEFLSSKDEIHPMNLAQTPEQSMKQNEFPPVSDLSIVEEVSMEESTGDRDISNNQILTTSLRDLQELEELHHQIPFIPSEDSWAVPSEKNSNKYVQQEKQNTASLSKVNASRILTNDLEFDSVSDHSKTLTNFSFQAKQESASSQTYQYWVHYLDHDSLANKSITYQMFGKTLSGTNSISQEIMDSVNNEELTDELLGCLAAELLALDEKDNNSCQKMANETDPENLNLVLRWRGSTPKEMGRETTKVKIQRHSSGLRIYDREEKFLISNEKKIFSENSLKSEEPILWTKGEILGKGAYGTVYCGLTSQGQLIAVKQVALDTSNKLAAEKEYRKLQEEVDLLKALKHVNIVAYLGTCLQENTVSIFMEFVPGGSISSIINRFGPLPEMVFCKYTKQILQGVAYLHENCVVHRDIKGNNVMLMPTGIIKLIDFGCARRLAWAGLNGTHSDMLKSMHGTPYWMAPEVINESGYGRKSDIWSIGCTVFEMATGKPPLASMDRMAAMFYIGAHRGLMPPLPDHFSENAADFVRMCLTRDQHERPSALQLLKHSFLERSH

Chain of Cyclin-dependent kinase 11B (Homo sapiens) (P21127 whole entry, the tested form may be a part): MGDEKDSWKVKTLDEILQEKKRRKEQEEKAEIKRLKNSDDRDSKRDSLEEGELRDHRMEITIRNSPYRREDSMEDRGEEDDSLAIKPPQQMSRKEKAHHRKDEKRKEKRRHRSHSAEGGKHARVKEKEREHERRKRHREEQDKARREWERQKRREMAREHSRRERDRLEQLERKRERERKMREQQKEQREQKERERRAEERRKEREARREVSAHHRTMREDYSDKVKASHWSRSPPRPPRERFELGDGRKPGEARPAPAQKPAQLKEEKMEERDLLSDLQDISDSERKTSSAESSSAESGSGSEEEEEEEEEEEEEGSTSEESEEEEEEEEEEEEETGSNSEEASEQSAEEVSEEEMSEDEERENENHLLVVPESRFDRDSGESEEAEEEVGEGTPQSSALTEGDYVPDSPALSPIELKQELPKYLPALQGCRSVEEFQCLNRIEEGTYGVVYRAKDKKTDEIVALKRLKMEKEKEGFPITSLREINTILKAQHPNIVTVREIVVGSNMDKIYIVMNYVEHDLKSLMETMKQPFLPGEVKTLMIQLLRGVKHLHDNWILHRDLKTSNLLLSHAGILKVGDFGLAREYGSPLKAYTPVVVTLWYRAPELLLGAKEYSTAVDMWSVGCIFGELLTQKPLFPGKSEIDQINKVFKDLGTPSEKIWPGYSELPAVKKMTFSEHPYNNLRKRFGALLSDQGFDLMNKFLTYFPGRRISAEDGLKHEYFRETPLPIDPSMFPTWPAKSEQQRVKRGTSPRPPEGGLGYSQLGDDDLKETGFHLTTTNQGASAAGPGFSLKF
Chain of Citron Rho-interacting kinase (Homo sapiens) (O14578 whole entry, the tested form may be a part): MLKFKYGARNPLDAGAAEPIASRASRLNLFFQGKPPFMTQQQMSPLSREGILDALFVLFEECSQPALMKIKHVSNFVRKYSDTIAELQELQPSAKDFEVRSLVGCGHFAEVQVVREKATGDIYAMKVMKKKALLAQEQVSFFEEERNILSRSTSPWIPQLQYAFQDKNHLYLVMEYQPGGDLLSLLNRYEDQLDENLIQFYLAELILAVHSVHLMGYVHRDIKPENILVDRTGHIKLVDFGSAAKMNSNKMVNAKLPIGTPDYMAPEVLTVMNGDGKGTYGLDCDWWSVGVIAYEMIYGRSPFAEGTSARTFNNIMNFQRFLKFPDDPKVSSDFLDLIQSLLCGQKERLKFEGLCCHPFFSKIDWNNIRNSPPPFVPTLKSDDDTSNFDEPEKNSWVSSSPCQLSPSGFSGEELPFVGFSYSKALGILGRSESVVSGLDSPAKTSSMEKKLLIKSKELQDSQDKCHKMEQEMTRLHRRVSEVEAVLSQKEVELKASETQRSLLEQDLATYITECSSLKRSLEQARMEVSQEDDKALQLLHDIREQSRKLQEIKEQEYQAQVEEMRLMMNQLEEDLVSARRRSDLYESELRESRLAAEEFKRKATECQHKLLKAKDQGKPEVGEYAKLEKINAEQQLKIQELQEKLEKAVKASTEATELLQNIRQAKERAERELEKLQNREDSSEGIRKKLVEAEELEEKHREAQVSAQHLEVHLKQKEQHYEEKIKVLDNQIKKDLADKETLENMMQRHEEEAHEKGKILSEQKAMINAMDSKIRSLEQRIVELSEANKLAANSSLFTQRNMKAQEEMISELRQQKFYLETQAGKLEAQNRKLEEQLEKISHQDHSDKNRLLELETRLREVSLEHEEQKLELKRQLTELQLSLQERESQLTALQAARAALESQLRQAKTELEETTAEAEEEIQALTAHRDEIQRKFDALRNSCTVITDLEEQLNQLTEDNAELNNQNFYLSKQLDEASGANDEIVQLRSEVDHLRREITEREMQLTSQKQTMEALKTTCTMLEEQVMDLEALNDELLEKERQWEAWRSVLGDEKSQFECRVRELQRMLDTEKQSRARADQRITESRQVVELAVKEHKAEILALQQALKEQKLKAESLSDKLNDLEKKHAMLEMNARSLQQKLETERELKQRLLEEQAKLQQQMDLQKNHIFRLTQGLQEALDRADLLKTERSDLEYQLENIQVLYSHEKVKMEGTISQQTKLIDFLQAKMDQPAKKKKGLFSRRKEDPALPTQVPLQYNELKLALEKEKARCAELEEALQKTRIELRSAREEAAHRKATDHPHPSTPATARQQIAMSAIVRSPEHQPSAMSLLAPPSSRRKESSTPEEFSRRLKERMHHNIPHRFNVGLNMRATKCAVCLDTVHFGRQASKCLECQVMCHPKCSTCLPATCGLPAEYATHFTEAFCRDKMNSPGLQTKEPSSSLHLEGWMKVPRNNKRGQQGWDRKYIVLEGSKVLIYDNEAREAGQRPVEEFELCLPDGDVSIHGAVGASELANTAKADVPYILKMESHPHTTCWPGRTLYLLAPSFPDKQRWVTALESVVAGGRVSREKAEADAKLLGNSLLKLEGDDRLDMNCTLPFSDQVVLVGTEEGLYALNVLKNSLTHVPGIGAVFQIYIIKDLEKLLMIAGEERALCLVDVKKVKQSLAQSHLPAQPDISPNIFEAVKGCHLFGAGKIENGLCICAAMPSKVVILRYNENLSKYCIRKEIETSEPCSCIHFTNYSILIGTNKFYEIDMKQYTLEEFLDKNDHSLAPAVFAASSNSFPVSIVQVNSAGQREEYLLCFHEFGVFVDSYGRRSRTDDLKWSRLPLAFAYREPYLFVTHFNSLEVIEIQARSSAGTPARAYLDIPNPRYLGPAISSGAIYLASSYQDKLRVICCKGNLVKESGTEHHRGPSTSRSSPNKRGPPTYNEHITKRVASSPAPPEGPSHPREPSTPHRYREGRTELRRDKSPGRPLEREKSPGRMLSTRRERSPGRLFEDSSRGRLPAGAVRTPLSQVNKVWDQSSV
Chain of Tyrosine-protein kinase ITK/TSK (Homo sapiens) (Q08881 whole entry, the tested form may be a part): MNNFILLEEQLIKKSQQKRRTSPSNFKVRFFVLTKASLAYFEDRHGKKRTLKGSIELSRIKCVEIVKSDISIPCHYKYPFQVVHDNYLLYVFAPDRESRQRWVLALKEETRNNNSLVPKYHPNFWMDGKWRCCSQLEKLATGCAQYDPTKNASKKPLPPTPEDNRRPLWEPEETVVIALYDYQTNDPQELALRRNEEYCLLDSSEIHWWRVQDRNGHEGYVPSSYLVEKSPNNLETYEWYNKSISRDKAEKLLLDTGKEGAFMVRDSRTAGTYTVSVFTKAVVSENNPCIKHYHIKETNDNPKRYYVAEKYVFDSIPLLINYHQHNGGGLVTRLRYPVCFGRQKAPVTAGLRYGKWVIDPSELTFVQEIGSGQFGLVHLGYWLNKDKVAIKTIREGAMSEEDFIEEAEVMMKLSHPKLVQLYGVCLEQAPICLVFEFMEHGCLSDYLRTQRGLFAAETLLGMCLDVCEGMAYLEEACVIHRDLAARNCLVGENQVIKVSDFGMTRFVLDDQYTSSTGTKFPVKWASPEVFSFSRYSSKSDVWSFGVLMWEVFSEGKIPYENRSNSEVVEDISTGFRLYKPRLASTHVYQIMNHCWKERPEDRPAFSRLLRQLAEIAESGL
Chain of Cyclin-dependent kinase 3 (Homo sapiens) (Q00526 whole entry, looked up, the tested form may be a part): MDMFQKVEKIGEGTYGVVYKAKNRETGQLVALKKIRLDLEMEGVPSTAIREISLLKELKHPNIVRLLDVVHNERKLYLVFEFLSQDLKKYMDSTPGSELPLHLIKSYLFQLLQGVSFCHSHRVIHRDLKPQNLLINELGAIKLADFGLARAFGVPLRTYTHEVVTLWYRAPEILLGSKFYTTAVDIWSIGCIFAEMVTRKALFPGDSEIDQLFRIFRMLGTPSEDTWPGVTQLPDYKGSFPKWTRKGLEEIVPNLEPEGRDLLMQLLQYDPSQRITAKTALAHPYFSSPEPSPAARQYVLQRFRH

| SMILES | Activity [1] [%] | Activity [2] [%] | Activity [3] [%] | Activity [4] [%] | Activity [5] [%] | Activity [6] [%] | Activity [7] [%] | Activity [8] [%] | Activity [9] [%] | Activity [10] [%] | Activity [11] [%] | Activity [12] [%] | Activity [13] [%] | Activity [14] [%] | Activity [15] [%] | Activity [16] [%] | Activity [17] [%] | Activity [18] [%] | Activity [19] [%] | Activity [20] [%] | also measured |
| --- | --- | --- | --- | --- | --- | --- | --- | --- | --- | --- | --- | --- | --- | --- | --- | --- | --- | --- | --- | --- | --- |
| CC1(C)[C@H](Nc2c(C(N)=O)cnn3cc(-c4ccccc4)cc23)CC[C@]1(C)N | 27 | 38 | 67 | 67 | 72 | 79 | 82 | 83 | 87 | 89 | 90 | 95 | 96 | 96 | 96 | 98 | 99 | 100 | 100 | 100 | Activity [21]: 100%; Activity [22]: 100%; Activity [23]: 100%; Activity [24]: 100%; Activity [25]: 100% |
| COc1ccc(-c2cc3c(N[C@@H]4CC[C@](C)(N)C4(C)C)c(C(N)=O)cnn3c2)cn1 | 61 | 74 | 97 | 100 | 90 | 93 | 100 | 64 | 100 | 90 | 100 | 97 | 100 | 97 | 73 | 94 | 100 | 100 | 100 | 100 | Activity [21]: 100%; Activity [22]: 94%; Activity [23]: 100%; Activity [24]: 87%; Activity [25]: 98% |

Source: ChEMBL document CHEMBL4052645, “Discovery of potent and efficacious pyrrolopyridazines as dual JAK1/3 inhibitors” (Bioorg Med Chem Lett, 2017)
